Test results from US10231985B2, “Compounds and compositions comprising such compounds for the prevention or treatment of dyslipidaemias” (CENTRE NATIONAL DE LA RECHERCHE SCIENTIFIQUE, priority 2013, dated 2019).

Columns and labels:
[1] = tested on: eIF2α phosphorylation (UPR); experiment: eIF2α phosphorylation by Western blot in lipointoxicated β-cells; assay type: cell-based, rat; settings: BRIN-BD11, 200 μM palmitic acid
Description: (§1) Pancreatic β-cells, BRIN-BD11, were grown under control conditions or in the presence of an exogenous source of saturated fatty acid (200 μM palmitic acid), as described by Dhayal & Morgan (2011), in order to generate lipointoxication conditions, with or without the addition of OAG. A) The proportion of dead cells was estimated in the absence (control) or presence of palmitic acid, for increasing concentrations of OAG. B) eIF2α phosphorylation levels were also analyzed under the various conditions by Western blot, in the presence or absence (Ø) of OAG, and were normalized to total eIF2α.
BRIN-BD11 cells are seeded at a density of 0.5×10^5 cells/ml in T25 flasks for 24 hours. As indicated above, the complete medium is then replaced by an equivalent lacking FCS but containing the lipid reagents of interest. After 6 hours of incubation, total protein is extracted using lysis buffer (20 mM Tris, 150 mM NaCl, 1 mM EDTA and 1% (v/v) Triton-X) containing protease and phosphatase inhibitors. […] The densitometric analysis of the relative abundance of phosphorylated or non-phosphorylated forms of eIF2α protein is carried out with the Fluor-S Multilmager analysis system combined with the Quantity One software (Bio-Rad UK Ltd).

[2] = tested on: BRIN-BD11 pancreatic β-cells; experiment: Cell viability of palmitic acid-lipointoxicated pancreatic β-cells (propidium iodide, flow cytometry); assay type: cell-based, rat; settings: BRIN-BD11, 200 μM palmitic acid
Description: as §1
The lipid species are prepared in ethanol before being complexed with bovine serum albumin (BSA, first depleted of fatty acids) by incubation for 1 hour at 37° C. The palmitic acid stock solution is obtained by adding one volume of ethanol before the whole is heated to 70° C. for homogenization. OAG and LPA solutions are prepared in 100% ethanol at room temperature. For the incubations of mammalian cells, the final BSA and ethanol concentrations in the culture medium are kept at 1% and 0.5% (w/v), respectively.
The rat pancreatic β-cell line (BRIN-BD11) is grown in complete RPMI-1640 medium, containing 11 mM glucose and supplemented with 10% (v/v) fetal calf serum (FCS), 2 mM L-glutamine, 100 U/ml penicillin and 100 μg/ml streptomycin. For each experiment, the cells are first seeded at a density of 0.5×10^5 cells/ml in 6-well plates for 24 hours. Thereafter, the complete medium is replaced by an equivalent lacking FCS but containing the lipid reagents of interest, at the desired concentrations, complexed with BSA. Under the control conditions, identical amounts of BSA and ethanol are then used. […] After incubation on ice for 10 minutes, the samples thus obtained are analyzed by flow cytometry. A Beckman Coulter EPICS XL MCL is used for the quantification, an FL3 channel is used to detect the emissions of the PI intercalated in the DNA, and the analysis is carried out using the EXPO32 ADC software (Applied Cytometry Systems, V 1.1 build 207).

## CCCCCCCC/C=C\CCCCCCCC(=O)OC[C@H](CO)OC(C)=O [OAG, 1-oleoyl-2-acetyl-sn-glycerol]
[1]
  eIF2α phosphorylation level normalized to total eIF2α (UPR intensity): reduces the UPR
[2]
  Apoptosis / proportion of dead cells of pancreatic β-cells: prevents apoptosis
